From patent US20250197864A1, “LNCRNA TRANSCRIPTS IN MELANOMAGENESIS” (The Regents of the University of California, priority 2021, published 2025)

How the values were obtained:
[1] = test system: SW1271 lung cancer cell line; assay: Cell viability assay (ATP quantitation); type: cell-based; settings: 50 nM, 5 days, vs non-targeting control
Description: (§1) EsiRNA, siRNA and ASO GapmeRs were transfected in a final concentration of 50 nM unless mentioned otherwise and the transfection reagent Lipofectamine 3000 (2 ul/ml) was added according to the manufacturer's instructions.
(§2) Dependent on cell doubling time, 0.7-2×10^^3 cells were seeded in 96 well plates. 1 day after seeding cells were incubated in media with oligonucleotide concentration and/or MEKi and transfection reagent. 3 (synergy experiments) or 5 (solely ASO) days after transfection Total luminescence was measured on the SynergyHT plate reader (BioTek) using Gen5 software.

[2] = test system: HCT116 colon carcinoma cell line; assay: Cell viability assay (ATP quantitation); type: cell-based; settings: 50 nM, 5 days, vs non-targeting control
Description: as §1, §2

[3] = test system: WM3060 melanoma cell line; assay: Cell viability assay (ATP quantitation); type: cell-based; settings: 50 nM, 5 days, vs non-targeting control
Description: as §1, §2

[4] = test system: U20S osteosarcoma cell line; assay: Cell viability assay (ATP quantitation); type: cell-based; settings: 50 nM, 5 days, vs non-targeting control
Description: as §1, §2

[5] = test system: U138-MG Glioblastoma cell line; assay: Cell viability assay (ATP quantitation); type: cell-based; settings: 50 nM, 5 days, vs non-targeting control
Description: as §1, §2

MM485 melanoma cell line = assay: Cell viability assay (ATP quantitation); type: cell-based; settings: 50 nM, 5 days, vs non-targeting control
Description: as §1, §2

[6] = test system: L363 multiple myeloma cell line; assay: Cell viability assay (ATP quantitation); type: cell-based; settings: 50 nM, 5 days, vs non-targeting control
Description: as §1, §2

[7] = test system: A-172 Glioblastoma cell line; assay: Cell viability assay (ATP quantitation); type: cell-based; settings: 50 nM, 5 days, vs non-targeting control
Description: as §1, §2

[8] = test system: H1299 lung cancer cell line; assay: Cell viability assay (ATP quantitation); type: cell-based; settings: 50 nM, 5 days, vs non-targeting control
Description: as §1, §2

[9] = test system: U87-MG Glioblastoma cell line; assay: Cell viability assay (ATP quantitation); type: cell-based; settings: 50 nM, 5 days, vs non-targeting control
Description: as §1, §2

[10] = test system: Sk-Mel-5 melanoma cell line; assay: Cell viability assay (ATP quantitation); type: cell-based; settings: 50 nM, 5 days, vs non-targeting control
Description: as §1, §2

[11] = test system: H929 multiple myeloma cell line; assay: Cell viability assay (ATP quantitation); type: cell-based; settings: 50 nM, 5 days, vs non-targeting control
Description: as §1, §2

[12] = test system: SW480 colon carcinoma cell line; assay: Cell viability assay (ATP quantitation); type: cell-based; settings: 50 nM, 5 days, vs non-targeting control
Description: as §1, §2

[13] = test system: Sk-N-AS Neuroblastoma cell line; assay: Cell viability assay (ATP quantitation); type: cell-based; settings: 50 nM, 5 days, vs non-targeting control
Description: as §1, §2

[14] = test system: T98G Glioblastoma cell line; assay: Cell viability assay (ATP quantitation); type: cell-based; settings: 50 nM, 5 days, vs non-targeting control
Description: as §1, §2

[15] = test system: Hs852.T primary melanoma cell line; assay: Cell viability assay (ATP quantitation); type: cell-based, human; settings: 50 nM, 5 days (120 hrs), vs non-targeting control
Description: as §1, §2

[16] = test system: Sk-Mel-2 melanoma cell line; assay: Cell viability assay (ATP quantitation); type: cell-based, human; settings: 50 nM, 5 days (120 hrs), vs non-targeting control
Description: as §1, §2

MM415 melanoma cell line = assay: Cell viability assay (ATP quantitation); type: cell-based, human; settings: 50 nM, 5 days (120 hrs), vs non-targeting control
Description: as §1, §2

[17] = test system: WM1366 melanoma cell line; assay: Cell viability assay (ATP quantitation); type: cell-based, human; settings: 50 nM, 5 days (120 hrs), vs non-targeting control
Description: as §1, §2

[18] = test system: WM3211 melanoma cell line; assay: Cell viability assay (ATP quantitation); type: cell-based, human; settings: 50 nM, 5 days (120 hrs), vs non-targeting control
Description: as §1, §2

D04 melanoma cell line = assay: Cell viability assay (ATP quantitation); type: cell-based, human; settings: 50 nM, 5 days (120 hrs), vs non-targeting control
Description: as §1, §2

[19] = test system: Sk-Mel-28 melanoma cell line; assay: Cell viability assay (ATP quantitation); type: cell-based, human; settings: 50 nM, 5 days (120 hrs), vs non-targeting control
Description: as §1, §2

VMM39 melanoma cell line = assay: Cell viability assay (ATP quantitation); type: cell-based, human; settings: 50 nM, 5 days (120 hrs), vs non-targeting control
Description: as §1, §2

[20] = test system: WM3629 melanoma cell line; assay: Cell viability assay (ATP quantitation); type: cell-based, human; settings: 50 nM, 5 days (120 hrs), vs non-targeting control
Description: as §1, §2

[21] = test system: D04RM trametinib resistant melanoma cell line; assay: Cell viability assay (ATP quantitation); type: cell-based; settings: 50 nM, 5 days, vs non-targeting control
Source text: (§3) Human melanoma cell line VMM39 was purchased from American Type Culture Collection (ATCC). Human melanoma cell lines D04, MM415, WM1366, WM3629, WM3211, Sk-Mel-2 and Sk-Mel-28 were a generous gift from Boris Bastian at the University of California, San Francisco. Primary human melanoma cell line Hs852.T was purchased from the Cell Culture Core Facility (CCCF) at the University of California, San Francisco. Primary human melanoma cell line AV5 was obtained from metastasis of a melanoma patient. All experimental protocols were approved by UCSF Human Research Protection Program Institutional Review Board (IRB #12-0948), all patients signed informed consent, and methods were carried out in accordance with relevant guidelines and regulations. Resistant cell lines DO4RM, MM415RM, Sk-Mel-2RM and WM3629RM were established as previously described. [Sanlorenzo, M. et al., The lincRNA MIRAT binds to IQGAPI and modulates the MAPK pathway in NRAS mutant melanoma. Sci Rep 8, 10902 (2018).] Primary human melanocytic cell lines (PHM) from infant foreskin of five healthy donors were available in our cell repository and pooled. Melanoma cell lines were maintained in RPMI 1640 media supplemented with 10% (vol/vol) heat inactivated fetal bovine serum. Melanocytes were maintained in M254 medium with HMGS supplements (1× final solution). All cell lines were incubated at 37° C. under 5% CO2.
as §1, §2

[22] = test system: MM415RM trametinib resistant melanoma cell line; assay: Cell viability assay (ATP quantitation); type: cell-based; settings: 50 nM, 5 days, vs non-targeting control
Source text: as §3, §1, §2

[23] = test system: Sk-Mel-2-RM trametinib resistant melanoma cell line; assay: Cell viability assay (ATP quantitation); type: cell-based; settings: 50 nM, 5 days, vs non-targeting control
Source text: as §3, §1, §2

[24] = test system: WM3629RM trametinib resistant melanoma cell line; assay: Cell viability assay (ATP quantitation); type: cell-based; settings: 50 nM, 5 days, vs non-targeting control
Source text: as §3, §1, §2

[25] = test system: AV5 primary melanoma cell line; assay: Cell viability assay (ATP quantitation); type: cell-based, human; settings: 50 nM, 5 days (120 hrs), vs non-targeting control
Description: as §1, §2

[26] = test system: sarcoma cell line SK-LMS-1; assay: Cell viability assay (ATP quantitation); type: cell-based; settings: SK-LMS-1 sarcoma; 50 nM, 120 hrs; Lipofectamine3000 2 ul/ml; vs non-targeting control ASO
Description: as §1, §2
(§4) Cell viability was compared to treatment with non-targeting control ASO-treatment. Lipofectamine3000 concentration was 2 ul/ml.

[27] = test system: hepatocellular carcinoma cell line HepG2; assay: Cell viability assay (ATP quantitation); type: cell-based; settings: 50 nM, 120 hrs, Lipofectamine3000 2 ul/ml, vs non-targeting control ASO
Description: as §1, §2, §4

Caspase 3+7 = assay: Caspase Glo 3/7 assay in D04 cell line; type: cell-based, human; settings: ASO 50 nM, 1 day, vs control ASOs
Description: Dependent on cell doubling time, 2-3×10^^3 cells were seeded in 96 well plates. 1 day after seeding cells were incubated in media with 50 nM oligonucleotide concentration and transfection reagent. 1 day after transfection Total luminescence was measured on the SynergyHT plate reader (BioTek) using Gen5 software. Experiments were performed in quadruplicates.

[28] = test system: H82 lung cancer cell line; assay: Cell viability assay (ATP quantitation); type: cell-based; settings: 50 nM, 5 days, vs non-targeting control
Description: as §1, §2

GATCATTTAATTTGAC (QIAGEN GapmeR, modification pattern not given here) [SEQ ID NO: 18, Antisense oligonucleotide targeting RP11-7011.3-001, 002 and 003]
cell viability decrease [1]: significant cell viability decrease
cell viability decrease [2]: significant cell viability decrease
cell viability decrease [3]: significant cell viability decrease
cell viability decrease [4]: significant cell viability decrease
cell viability decrease [5]: significant cell viability decrease
cell viability decrease (MM485 melanoma cell line): significant cell viability decrease
cell viability decrease [6]: significant cell viability decrease
cell viability decrease [7]: significant cell viability decrease
cell viability decrease [8]: significant cell viability decrease
cell viability decrease [9]: significant cell viability decrease
cell viability decrease [10]: significant cell viability decrease
cell viability decrease [11]: significant cell viability decrease
cell viability decrease [12]: significant cell viability decrease
cell viability decrease [13]: significant cell viability decrease
cell viability decrease [14]: significant cell viability decrease
cell viability decrease [15]: significant cell viability decrease
cell viability decrease [16]: significant cell viability decrease
cell viability decrease (MM415 melanoma cell line): significant cell viability decrease
cell viability decrease [17]: significant cell viability decrease
cell viability decrease [18]: significant cell viability decrease
cell viability decrease (D04 melanoma cell line): significant cell viability decrease
cell viability decrease [19]: significant cell viability decrease
cell viability decrease (VMM39 melanoma cell line): significant cell viability decrease
cell viability decrease [20]: significant cell viability decrease
cell viability decrease [21]: significant cell viability decrease
cell viability decrease [22]: significant cell viability decrease
cell viability decrease [23]: significant cell viability decrease
cell viability decrease [24]: significant cell viability decrease

CTCATGAGCTGTCGTA (QIAGEN GapmeR, modification pattern not given here) [SEQ ID NO: 41, Antisense oligonucleotide targeting AC004540.4-001 and AC004540.4-002]
cell viability decrease [15]: significant cell viability decrease
cell viability decrease [25]: significant cell viability decrease
cell viability decrease [16]: significant cell viability decrease
cell viability decrease (MM415 melanoma cell line): significant cell viability decrease
cell viability decrease [17]: significant cell viability decrease
cell viability decrease [18]: significant cell viability decrease
cell viability decrease (D04 melanoma cell line): significant cell viability decrease
cell viability decrease [19]: significant cell viability decrease
cell viability decrease (VMM39 melanoma cell line): significant cell viability decrease
cell viability decrease [20]: significant cell viability decrease
cell viability decrease [26]: significant cell viability decrease
cell viability decrease [27]: significant cell viability decrease

GACCGTAGTTAGAAGG (GapmeR, chemically modified, pattern not given here) [SEQ ID NO: 48, GapmeR antisense oligonucleotide targeting HNRNPA2/B1]
Caspase-3 &-7 activity increase (Caspase 3+7): 1.7 fold
cell viability decrease (D04 melanoma cell line): significant cell viability decrease
cell viability decrease (D04 melanoma cell line; listed as hnRNPA2/B1i): significant cell viability decrease

ATCATCTGGATTAGTG (chemistry not given here) [SEQ ID NO: 14, Antisense oligonucleotide targeting BX470102.3-008]
cell viability decrease [1]: significant cell viability decrease
cell viability decrease [2]: significant cell viability decrease
cell viability decrease [3]: significant cell viability decrease
cell viability decrease [4]: significant cell viability decrease
cell viability decrease [5]: significant cell viability decrease
cell viability decrease (MM485 melanoma cell line): significant cell viability decrease
cell viability decrease [6]: significant cell viability decrease
cell viability decrease [7]: significant cell viability decrease
cell viability decrease [8]: significant cell viability decrease
cell viability decrease [9]: significant cell viability decrease
cell viability decrease [10]: significant cell viability decrease
cell viability decrease [28]: significant cell viability decrease
cell viability decrease [11]: significant cell viability decrease
cell viability decrease [12]: significant cell viability decrease
cell viability decrease [13]: significant cell viability decrease
cell viability decrease [14]: significant cell viability decrease
cell viability decrease [15]: significant cell viability decrease
cell viability decrease [25]: significant cell viability decrease
cell viability decrease [16]: significant cell viability decrease
cell viability decrease (MM415 melanoma cell line): significant cell viability decrease
cell viability decrease [17]: significant cell viability decrease
cell viability decrease [18]: significant cell viability decrease
cell viability decrease (D04 melanoma cell line): significant cell viability decrease
cell viability decrease [19]: significant cell viability decrease
cell viability decrease (VMM39 melanoma cell line): significant cell viability decrease
cell viability decrease [20]: significant cell viability decrease
cell viability decrease [21]: significant cell viability decrease
cell viability decrease [22]: significant cell viability decrease
cell viability decrease [23]: significant cell viability decrease
cell viability decrease [24]: significant cell viability decrease
